Results taken from PubChem BioAssay AID1996.
Converted amounts (≈) assume the structure as drawn.

Details: buffer; pH 7.4; 200.0 µM

First: O=C(CSc1ccccc1)Nc1ccc2sccc2c1
Second: O=C(C[n+]1ccccc1)Nc1ccc(Cl)c([N+](=O)[O-])c1.[Cl-]
The solubility kinetic of the first is lower: 0.7 µg/mL (≈ 2.34 µM) for the first, greater than 49.2 µg/mL for the second.

Going from COc1ccc(C(=O)/C=C/NCc2ccc(F)cc2)cc1OC to COc1cc(OC)c(NC(=S)NCc2ccc(F)cc2)cc1Cl, the solubility kinetic falls from greater than 47.3 µg/mL to 1 µg/mL (≈ 2.82 µM).

Compared with Cc1nc(NC(=O)CCc2ccccc2)sc1C, O=C(CCS(=O)(=O)c1ccccc1)Nc1ccccn1 is higher in solubility kinetic: 18.7 µg/mL (≈ 71.8 µM) for the first, greater than 43.6 µg/mL for the second.

First: Cn1cnnc1SCC(=O)NC1CCCc2ccccc21 (stereo unspecified)
Second: O=C(COC(=O)/C=C/c1ccccc1)NC1CCCC1
The solubility kinetic of the first is higher: greater than 45.4 µg/mL for the first, 17.2 µg/mL (≈ 62.9 µM) for the second.

Going from CCOc1ccc(N2C(=O)CC(=O)NC2=O)cc1 to CCOC(=O)NC(=O)c1cn(-c2ccc(OC)cc2)c(=O)[nH]c1=O, the solubility kinetic falls from greater than 37.2 µg/mL to 9.1 µg/mL (≈ 27.3 µM).

Going from O=C(c1ccco1)N1CCN(C(=O)c2ccccc2OCc2ccccc2)CC1 to O=C(Oc1ccccc1)N1CCN(c2ccccc2F)CC1, the solubility kinetic falls from greater than 58.6 µg/mL to 39.5 µg/mL (≈ 132 µM).

Compared with COc1ccc(C2C(C(C)=O)=C(C)Nc3ncnn32)cc1[N+](=O)[O-] (stereo unspecified), COc1cc(C)c(COc2ncnc3ccccc23)cc1OC is lower in solubility kinetic: greater than 49.4 µg/mL for the first, 40.1 µg/mL (≈ 129 µM) for the second.

O=C1OCC2=C1C(c1ccc(F)cc1)CC(=O)N2c1ccccc1 (stereo unspecified) and CN1CCC(N(C)C(=O)c2cc(-c3ccc(F)cc3)nc3ccccc23)CC1.Cl cannot be ordered by solubility kinetic: greater than 48.5 µg/mL for the first, greater than 62.1 µg/mL for the second.

First: CC(=O)N(Cc1ccccn1)Cc1ccco1
Second: COc1ccc2oc(C(=O)NCc3ccco3)c(C)c2c1
The solubility kinetic of the first is higher: greater than 34.5 µg/mL for the first, 31.6 µg/mL (≈ 111 µM) for the second.

Compared with Cc1ccc(S(=O)(=O)NC2CC2)cc1[N+](=O)[O-], O=[N+]([O-])c1ccc(S(=O)(=O)NCC2CC3CCC2C3)cc1 (stereo unspecified) is lower in solubility kinetic: greater than 38.4 µg/mL for the first, 5.5 µg/mL (≈ 17.7 µM) for the second.

Going from CC1CCC2C(C1)Nc1c(C(=O)O)cccc1C2(C)C (stereo unspecified) to CN(C)C(=O)c1ccc(NC(=O)COC(=O)C2(c3ccccc3)CCCC2)cc1, the solubility kinetic falls from greater than 41 µg/mL to 24.3 µg/mL (≈ 61.6 µM).

First: O=C(O)C1CC(=O)N(c2ccc(OCc3ccc(Br)cc3)cc2)C1 (stereo unspecified)
Second: COc1ccc2c(CC(=O)Nc3ccc(N4CCOCC4)cc3)coc2c1
The solubility kinetic of the first is higher: greater than 58.5 µg/mL for the first, 5.4 µg/mL (≈ 14.7 µM) for the second.

O=C1/C(=C/c2cccc(O)c2)SC(=S)N1CC1CCCO1 (stereo unspecified) and COc1ccc(C(=O)Nc2cccc3c2CCCC3)c(OC)c1 cannot be ordered by solubility kinetic: less than 0.7 µg/mL for the first, less than 0.7 µg/mL for the second.

First: N#Cc1c(N)nc2c(c1N)CC(C(F)(F)F)O2 (stereo unspecified)
Second: CC(=O)c1ccc(OCc2ncc(C(F)(F)F)cc2Cl)cc1
The solubility kinetic of the first is higher: greater than 36.6 µg/mL for the first, 23.6 µg/mL (≈ 71.6 µM) for the second.

First: COc1ccccc1N1CCN(C(=O)c2cc(C)oc2C)CC1
Second: CCc1c(C)nc(N2CCN(c3ccccc3)CC2)[nH]c1=O
The solubility kinetic of the first is higher: greater than 47.2 µg/mL for the first, 8.8 µg/mL (≈ 29.5 µM) for the second.

Going from CN(C(=O)c1cncc(Br)c1)C1C2CC3CC(C2)CC1C3 (stereo unspecified) to COc1ccc(S(=O)(=O)N2CCOCC2)cc1NC(=O)C1CC1, the solubility kinetic rises from 48.1 µg/mL (≈ 138 µM) to greater than 51.1 µg/mL.

Compared with c1ccc(SSc2ccccn2)nc1, CC1c2cccn2CCN1S(=O)(=O)c1ccccc1 (stereo unspecified) is 1.6-fold higher in solubility kinetic: 25.5 µg/mL (≈ 116 µM) for the first, 40.3 µg/mL (≈ 146 µM) for the second.

CCCCOc1ccc(Cc2cnc(N)nc2N)cc1 and COc1ccc(NC(=O)c2coc(C)c2)cc1 are within 1.5-fold of each other in solubility kinetic: 36.3 µg/mL (≈ 133 µM) for the first, 31.9 µg/mL (≈ 138 µM) for the second.

Compared with Nc1nc(-c2ccc(S(=O)(=O)N3CCCCC3)cc2)cs1, Cc1ccc(CS(=O)(=O)c2nc3c(c(N(C)C)n2)CCCC3)cc1 is 7-fold higher in solubility kinetic: 6.6 µg/mL (≈ 20.4 µM) for the first, 46 µg/mL (≈ 133 µM) for the second.

COc1cc(OC)cc(/C(N)=N/O)c1 and CCOC(=O)c1sc(-c2ccc(Cl)cc2Cl)nc1O are within 1.5-fold of each other in solubility kinetic: 26.9 µg/mL (≈ 137 µM) for the first, 28.2 µg/mL (≈ 88.6 µM) for the second.

First: Cc1cc(C)c2sc(N)nc2c1
Second: CCOC(=O)Cc1csc(NC(=O)c2cc(C)on2)n1
The solubility kinetic of the first is lower: 25.1 µg/mL (≈ 141 µM) for the first, greater than 44.3 µg/mL for the second.

Compared with O=C(CC(NC(=O)c1ccccc1)c1ccccc1)NCc1ccccc1 (stereo unspecified), CC(CNC(=O)c1ccccc1Cl)NC(=O)c1ccccc1Cl (stereo unspecified) is higher in solubility kinetic: 4.1 µg/mL (≈ 11.4 µM) for the first, greater than 52.7 µg/mL for the second.

First: CCOCCCNC1=C(Cl)C(=O)c2ccccc2C1=O
Second: CCOP(=O)(OCC)C(Nc1ccc(F)cc1)c1ccccc1 (stereo unspecified)
The solubility kinetic of the first is lower: 31.9 µg/mL (≈ 109 µM) for the first, greater than 50.6 µg/mL for the second.

C1CCCN(C2CCNCC2)CC1.Cl and CN(C)C(=O)CN1CCN(Cc2nc(CC3CC3)no2)CC1 cannot be ordered by solubility kinetic: greater than 38.3 µg/mL for the first, greater than 46.1 µg/mL for the second.

Going from CCNC(=O)NC(=O)C(C)OC(=O)c1ccc(SC)cc1OC (stereo unspecified) to COC(=O)c1scc(S(C)(=O)=O)c1-n1cccc1, the solubility kinetic falls from greater than 51.1 µg/mL to 35.2 µg/mL (≈ 123 µM).

First: C=CCN(CC=C)C(=S)Nc1ccc2nsnc2c1
Second: Cc1cccnc1NC(=O)Nc1cccc(Cl)c1
The solubility kinetic of the first is higher: greater than 43.6 µg/mL for the first, 0.5 µg/mL (≈ 1.91 µM) for the second.

Compared with Cn1c(C(=O)O)cc2cc(Oc3ccccc3)ccc21, CCN(c1ccccc1)c1cc2ccccc2c(=O)[nH]1 is 1.5-fold lower in solubility kinetic: 36 µg/mL (≈ 135 µM) for the first, 23.9 µg/mL (≈ 90.4 µM) for the second.

CCn1nc(C)c(/C=N/NC(=O)Cn2cncn2)c1C and CC(C)CCn1cnc2c(oc3nc4c(cc32)CCCC4)c1=O cannot be ordered by solubility kinetic: greater than 41.3 µg/mL for the first, 43 µg/mL (≈ 138 µM) for the second.

O=C(NCc1cccs1)c1cnc(Cl)c(Cl)c1 and CC(NC(=O)c1ccc(S(=O)(=O)Nc2ccccc2Cl)cc1)c1ccncc1 (stereo unspecified) cannot be ordered by solubility kinetic: greater than 43.1 µg/mL for the first, greater than 62.4 µg/mL for the second.

Compared with C/C(=N\OCc1ccccc1C#N)c1cc2ccccc2o1, COCCCNC(=S)N1CCC(C(=O)c2ccc(Cl)cc2)CC1 is higher in solubility kinetic: 1.1 µg/mL (≈ 3.79 µM) for the first, greater than 53.2 µg/mL for the second.

Cc1ccc(S(=O)(=O)N2CCN(C)CC2)c2nsnc12 gave a solubility kinetic greater than 46.9 µg/mL.
